# Results from article PMC10683025, “Discovery of a Hydroxylamine-Based Brain-Penetrant EGFR Inhibitor for Metastatic Non-Small-Cell Lung Cancer” (Journal of Medicinal Chemistry, 2023).
# Read-outs that look alike come from different tables or passages of the source.
# Tests used:
# [1] = target: T1, EGFRwt (Homo sapiens, UniProt P00533); experiment: KINOMEScan KdELECT Kd determination; assay type: binding; details: wt; read-out: EGFR Kd
# T1 construct: purchased Eurofins DiscoverX (contract assay)
# Protocol: (§2) In vitro kinase activity (inhibitor binding constants (Kd) and biochemical inhibition (IC50’s)) were assessed by Eurofins DiscoverX (Kd determinations) and Eurofins Cerep (biochemical IC50 determinations).
# [2] = target: T2, EGFR del E746_A750 (Homo sapiens, UniProt P00533, DEL746-750); experiment: KINOMEScan KdELECT Kd determination; assay type: binding
# T2 construct: purchased Eurofins DiscoverX (contract assay)
# Protocol: as §2
# [3] = target: T1, EGFRwt; experiment: KinaseProfiler enzymatic radiometric assay; assay type: biochemical; details: wt, ATP 10 μM; read-out: EGFR IC50
# Protocol: as §2
# [4] = test system: HCC827 (EGFR mutation = exon19del); experiment: CellTiter-Glo cell viability assay; assay type: cell-based, human; details: Homo sapiens, HCC827; 72 h, unadjusted for FBS
# Protocol: (§3) The NCI-H3255 cell line was obtained from CoBioer. […] NCI-H3255 cells were cultured in BEGM (Lonza) with 10% FBS. […] All cells were cultured in a humidified incubator with 5% CO2 at 37 °C.
# (§4) Viability assays using A431, HCC827, NCI-H1975, NCI-H3255, Ba/F3 EGFR-del E746_A750/C797S, Ba/F3 EGFR-L858R/C797S, AU565, SK-BR-3, and ZR-75-30 cells were performed at Crown BioScience.
# [5] = test system: NCI-H3255 (EGFR mutation = L858R); experiment: CellTiter-Glo cell viability assay; assay type: cell-based, human; details: Homo sapiens, NCI-H3255; 72 h, unadjusted for FBS
# Protocol: as §3, §4
# [6] = Lipophilicity, shake-flask; assay type: physicochemical; details: 1-octanol/PBS; 1-octanol and PBS (pH 7.4); read-out: logD7.4
# Protocol: Compound lipophilicity was determined by Pharmaron, Inc. using the shake-flask method with 1-octanol and PBS (pH 7.4). Each compound was assessed in duplicate (n = 2) at 1 μM in a 96-well plate shaken at 25 °C and 2000 rpm for 2 h. Samples were analyzed by liquid chromatography and tandem mass spectrometry (LC-MS/MS).
# [7] = Solubility assay; assay type: physicochemical; details: buffer, pH 7.4, aqueous buffer; read-out: Aq. Sol.
# Protocol: Solubility was determined by Pharmaron, Inc. and each compound was assessed in duplicate (n = 2) by adding 15 μL of compound stock solution (10 mM in DMSO) into a 96-well plate along with 485 μL of buffer followed by shaking at 25 °C, 1100 rpm for 2 h. Wells were filtered, and samples (5 μL) were taken followed by dilution with an equal volume of DMSO (5 μL) and 490 μL of aqueous solution. Samples were analyzed by LC-MS/MS.
# [8] = Metabolic stability in liver microsomes; assay type: in vitro ADME, human; details: for Remaining Percentage: human LM
# [9] = Metabolic stability in liver microsomes; assay type: in vitro ADME, Sprague-Dawley rat; details: for Remaining Percentage: rat LM
# Protocol: Microsome stability was assessed in duplicate (n = 2) in the presence and absence of nicotinamide adenine dinucleotide phosphate (NADPH) with liver microsomes (0.5 mg/mL) from human (BD Gentest) and Sprague-Dawley rats (BD Gentest). Compounds were incubated in liver microsomes at 1 μM and samples (30 μL) were taken at 0.5, 15, 30, 45, and 60 min time points for analysis by LC-MS/MS. Hepatocyte stability was assessed in duplicate (n = 2) at a working cell density of 0.5 × 10^6 cells/mL with hepatocytes from human (BiolVT), Sprague-Dawley rat (BiolVT), cynomolgus monkey (RILD) or beagle dog (BiolVT). […] The in vitro half-life and intrinsic clearances were determined as previously described.[76]
# In vitro half-life (in vitro t1/2) was determined from the slope value in [drawing 1] where k was determined by linear regression of the natural logarithm of the remaining percentage of the parent drug vs the incubation time curve.
# [10] = Plasma stability; assay type: in vitro ADME, human; details: human plasma
# Protocol: (§1) Assessment of compounds to determine stability in incubations containing plasma of human (Pharmaron) and Sprague-Dawley rat (IPHASE) was performed by Pharmaron, Inc. using the compound […] approach. Compounds were assessed in duplicate (n = 2) and incubated in plasma at 5 μM and samples (50 μL) were taken at 0, 15, 30, 60, and 120 min time points for analysis by LC-MS/MS. Peak area ratios were determined from the extracted ion chromatogram and the percent compound remaining at each time point was calculated by the following equation: [drawing 2] where peak area ratiot min is the peak area ratio of control and test compound at t min and peak area ratio0 min is the peak area ratio of control and test compound at zero time point.
# [11] = Plasma stability; assay type: in vitro ADME, Sprague-Dawley rat; details: rat plasma
# Protocol: as §1
# [12] = Caco-2 permeability; assay type: in vitro ADME; details: human; for recovery at 2 h, 5 μM: Caco-2, Caco-2
# [13] = test system: Caco-2 cells; experiment: Caco-2 permeability; assay type: in vitro ADME; details: Caco-2
# [14] = MDCKII-MDR1 permeability; assay type: in vitro ADME, canine; details: dog, MDCK-MDR1, MDCKII-MDR1
# Protocol: (§5) A 96-well HTS Transwell plate (Corning) was used for Caco-2 and MDCKII-MDR1 cell seeding. […] Plates were incubated at 37 °C for 2 h, and samples (50 μL) were taken at the beginning and end of the incubation in both the donor and acceptor wells with the assay run in duplicate (n = 2). Samples were analyzed by LC-MS/MS.
# (§6) The efflux ratio was determined by using the following equation: [drawing 4] where Papp (B–A) indicates the apparent permeability in the basolateral to apical direction and Papp (A–B) indicates the apparent permeability in the apical to basolateral direction.
# [15] = test system: MDCKII-MDR1 cells; experiment: MDCKII-MDR1 permeability; assay type: in vitro ADME, canine; details: MDCKII-MDR1
# Protocol: as §5, §6
# [16] = test system: MDR1; experiment: MDCKII-MDR1 permeability; assay type: in vitro ADME, canine; details: dog, MDCK-MDR1
# Protocol: as §5, §6
# [17] = Plasma protein binding by equilibrium dialysis; assay type: in vitro ADME; details: human; for fraction unbound at 6 h, 5 μM: read-out: fu,plasma% / %Unbound (converted)
# Protocol: Plasma protein binding and brain tissue binding were determined by Pharmaron, Inc. using the equilibrium dialysis method. […] Following incubation, the samples were analyzed by LC-MS/MS and the concentrations of the compounds were determined in the buffer and plasma solution chambers.
# [18] = target: T3, EGFRL858R (Homo sapiens, UniProt P00533, L858R); experiment: KINOMEScan KdELECT Kd determination; assay type: binding; design: purchased Eurofins DiscoverX (contract assay)
# Protocol: as §2
# [19] = target: T3, EGFRL858R; experiment: KinaseProfiler enzymatic radiometric assay; assay type: biochemical; design: purchased Eurofins Cerep (KinaseProfiler, contract assay); details: ATP 10 μM, read-out: EGFR IC50
# Protocol: as §2
# T3 sequence (P00533 25-1210 L858R): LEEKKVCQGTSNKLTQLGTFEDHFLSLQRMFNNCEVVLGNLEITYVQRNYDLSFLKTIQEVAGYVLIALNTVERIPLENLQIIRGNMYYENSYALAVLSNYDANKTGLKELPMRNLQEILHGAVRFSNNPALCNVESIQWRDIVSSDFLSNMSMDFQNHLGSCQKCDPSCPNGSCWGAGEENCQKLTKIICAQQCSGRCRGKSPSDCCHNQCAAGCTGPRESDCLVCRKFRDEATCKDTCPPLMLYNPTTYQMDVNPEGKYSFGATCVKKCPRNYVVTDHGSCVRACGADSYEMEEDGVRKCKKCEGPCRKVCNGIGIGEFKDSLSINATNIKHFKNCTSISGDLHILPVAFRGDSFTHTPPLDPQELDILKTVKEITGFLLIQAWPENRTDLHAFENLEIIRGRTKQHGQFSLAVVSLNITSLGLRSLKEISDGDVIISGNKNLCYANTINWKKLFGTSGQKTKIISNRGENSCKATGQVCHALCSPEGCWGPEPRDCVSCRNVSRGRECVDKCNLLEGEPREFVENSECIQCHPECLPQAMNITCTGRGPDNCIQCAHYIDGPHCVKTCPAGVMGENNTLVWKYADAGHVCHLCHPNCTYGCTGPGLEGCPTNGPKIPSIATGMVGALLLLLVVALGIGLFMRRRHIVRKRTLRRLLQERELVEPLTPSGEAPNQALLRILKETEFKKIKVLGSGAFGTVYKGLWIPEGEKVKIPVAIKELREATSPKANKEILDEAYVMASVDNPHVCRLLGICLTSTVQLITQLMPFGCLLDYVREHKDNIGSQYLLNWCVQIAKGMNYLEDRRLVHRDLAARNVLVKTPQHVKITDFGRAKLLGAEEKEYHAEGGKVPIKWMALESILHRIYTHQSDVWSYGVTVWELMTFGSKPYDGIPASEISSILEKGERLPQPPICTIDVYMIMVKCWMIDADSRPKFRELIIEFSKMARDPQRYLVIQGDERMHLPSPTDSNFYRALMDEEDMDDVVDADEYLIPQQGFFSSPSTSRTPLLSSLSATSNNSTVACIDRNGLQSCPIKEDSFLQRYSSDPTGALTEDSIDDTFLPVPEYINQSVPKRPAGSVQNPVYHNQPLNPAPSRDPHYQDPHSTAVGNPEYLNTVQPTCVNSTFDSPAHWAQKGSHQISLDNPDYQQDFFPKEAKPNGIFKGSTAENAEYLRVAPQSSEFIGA
# T1 sequence (P00533 25-1210): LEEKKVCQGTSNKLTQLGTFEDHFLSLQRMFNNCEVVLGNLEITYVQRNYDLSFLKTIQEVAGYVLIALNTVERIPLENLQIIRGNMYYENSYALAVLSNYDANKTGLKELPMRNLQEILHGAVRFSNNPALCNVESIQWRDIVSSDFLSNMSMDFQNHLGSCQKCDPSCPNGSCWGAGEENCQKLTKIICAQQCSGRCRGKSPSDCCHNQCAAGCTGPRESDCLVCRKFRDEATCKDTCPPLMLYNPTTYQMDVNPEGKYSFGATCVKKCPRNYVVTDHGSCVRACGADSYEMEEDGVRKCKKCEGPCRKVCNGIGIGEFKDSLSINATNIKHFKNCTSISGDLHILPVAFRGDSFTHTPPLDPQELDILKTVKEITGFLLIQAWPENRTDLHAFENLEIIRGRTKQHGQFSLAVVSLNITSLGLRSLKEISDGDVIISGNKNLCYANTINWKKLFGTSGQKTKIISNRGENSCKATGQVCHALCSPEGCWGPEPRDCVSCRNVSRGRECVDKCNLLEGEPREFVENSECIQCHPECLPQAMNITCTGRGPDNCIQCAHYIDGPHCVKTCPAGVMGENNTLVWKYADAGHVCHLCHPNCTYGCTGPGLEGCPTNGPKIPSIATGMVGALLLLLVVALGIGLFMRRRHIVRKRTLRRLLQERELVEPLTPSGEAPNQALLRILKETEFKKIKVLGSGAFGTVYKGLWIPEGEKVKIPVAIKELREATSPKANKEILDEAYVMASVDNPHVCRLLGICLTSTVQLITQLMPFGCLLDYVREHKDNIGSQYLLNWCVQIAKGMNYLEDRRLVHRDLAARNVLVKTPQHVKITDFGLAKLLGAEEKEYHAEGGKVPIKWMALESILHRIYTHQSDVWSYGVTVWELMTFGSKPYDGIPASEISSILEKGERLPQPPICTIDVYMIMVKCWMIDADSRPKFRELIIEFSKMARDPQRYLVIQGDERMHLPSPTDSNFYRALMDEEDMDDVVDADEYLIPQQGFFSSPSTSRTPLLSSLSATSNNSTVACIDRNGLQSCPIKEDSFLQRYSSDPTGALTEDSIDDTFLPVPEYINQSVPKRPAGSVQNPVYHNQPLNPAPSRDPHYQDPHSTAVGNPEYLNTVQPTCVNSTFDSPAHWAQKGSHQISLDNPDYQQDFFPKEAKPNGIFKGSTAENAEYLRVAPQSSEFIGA
# T2 sequence (P00533 with tags, fused parts or gaps DEL746-750): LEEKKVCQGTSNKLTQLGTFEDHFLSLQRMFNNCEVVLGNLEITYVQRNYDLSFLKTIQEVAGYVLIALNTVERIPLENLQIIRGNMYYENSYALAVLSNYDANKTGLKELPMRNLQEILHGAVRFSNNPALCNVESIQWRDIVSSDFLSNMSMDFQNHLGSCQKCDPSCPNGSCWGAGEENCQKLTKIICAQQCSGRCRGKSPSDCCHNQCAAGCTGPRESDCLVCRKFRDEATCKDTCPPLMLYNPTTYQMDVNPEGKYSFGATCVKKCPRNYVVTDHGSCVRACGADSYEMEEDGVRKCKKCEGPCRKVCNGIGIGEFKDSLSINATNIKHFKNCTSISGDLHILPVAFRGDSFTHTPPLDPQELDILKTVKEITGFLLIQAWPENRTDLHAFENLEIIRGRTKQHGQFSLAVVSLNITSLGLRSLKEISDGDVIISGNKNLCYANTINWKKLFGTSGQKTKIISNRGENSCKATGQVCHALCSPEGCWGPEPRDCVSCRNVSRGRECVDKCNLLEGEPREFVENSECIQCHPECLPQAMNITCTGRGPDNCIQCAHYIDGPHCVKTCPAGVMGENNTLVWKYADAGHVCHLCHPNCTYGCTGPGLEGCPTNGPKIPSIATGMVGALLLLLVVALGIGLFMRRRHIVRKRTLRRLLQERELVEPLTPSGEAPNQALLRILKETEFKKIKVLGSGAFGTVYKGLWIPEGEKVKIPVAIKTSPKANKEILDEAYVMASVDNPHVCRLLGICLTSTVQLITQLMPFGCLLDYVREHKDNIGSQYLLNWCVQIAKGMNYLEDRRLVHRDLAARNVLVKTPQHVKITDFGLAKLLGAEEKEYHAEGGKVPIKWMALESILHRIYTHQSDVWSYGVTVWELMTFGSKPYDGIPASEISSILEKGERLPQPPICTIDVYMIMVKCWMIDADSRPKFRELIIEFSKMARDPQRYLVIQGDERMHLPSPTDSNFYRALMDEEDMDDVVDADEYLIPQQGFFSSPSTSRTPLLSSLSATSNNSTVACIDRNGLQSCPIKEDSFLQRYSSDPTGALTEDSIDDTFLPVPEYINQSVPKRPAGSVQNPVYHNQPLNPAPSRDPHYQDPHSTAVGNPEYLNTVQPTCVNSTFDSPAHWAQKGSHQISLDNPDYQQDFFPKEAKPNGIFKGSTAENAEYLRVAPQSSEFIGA
compound,measurement,setting,value
"COc1cc2ncnc(Nc3ccc(F)c(Cl)c3)c2cc1OCCON1CCOCC1 [Compound 6, N-(3-Chloro-4-fluorophenyl)-7-methoxy-6-(2-(morpholinooxy)ethoxy)quinazolin-4-amine]",Kd,[1],0.6 nM
same,Kd,[2],0.3 nM
same,IC50,[3],5 nM
same,IC50,[4],4.2 nM
same,IC50,[5],88 nM
same,"logD at 2 h, 1 µM",[6],3.9
same,solubility kinetic at 2 h,[7],1 µM
same,Remaining Percentage,"[8]; +Cofactors, 15 min",49.30%
same,Remaining Percentage,"[8]; +Cofactors, 30 min",28.74%
same,Remaining Percentage,"[8]; +Cofactors, 45 min",20.85%
same,Remaining Percentage,"[8]; +Cofactors, 60 min",14.00%
same,Remaining Percentage,"[8]; -Cofactors, 60 min",89.19%
same,"half-life at 1 h, 1 µM","[8]; human, liver microsomes, read-out: LM t1/2",21.6 min
same,"microsomal CLint at 1 h, 1 µM","[8]; human, liver microsomes, read-out: LMClint",64 µL/min/mg
same,"half-life at 1 h, 1 µM","[9]; Sprague-Dawley, rat, liver microsomes, read-out: LM t1/2",19.5 min
same,"microsomal CLint at 1 h, 1 µM","[9]; Sprague-Dawley, rat, liver microsomes, read-out: LMClint",71 µL/min/mg
same,Remaining Percentage,"[9]; +Cofactors, 15 min",50.62%
same,Remaining Percentage,"[9]; +Cofactors, 30 min",25.81%
same,Remaining Percentage,"[9]; +Cofactors, 45 min",17.98%
same,Remaining Percentage,"[9]; +Cofactors, 60 min",11.88%
same,Remaining Percentage,"[9]; -Cofactors, 60 min",109.68%
same,Remaining Percentages,[10]; 15 min,98.26%
same,Remaining Percentages,[10]; 30 min,102.87%
same,Remaining Percentages,[10]; 60 min,101.74%
same,Remaining Percentages,[10]; 120 min,97.90%
same,t1/2,[10]; ∞ = no degradation,∞
same,Remaining Percentages,[11]; 15 min,100.23%
same,Remaining Percentages,[11]; 30 min,99.35%
same,Remaining Percentages,[11]; 60 min,99.28%
same,Remaining Percentages,[11]; 120 min,104.21%
same,t1/2,[11]; ∞ = no degradation,∞
same,"efflux ratio at 2 h, 5 µM",[12]; Caco-2,1.9
same,"efflux ratio at 2 h, 5 μM",[12]; Caco-2,1.91
same,"recovery at 2 h, 5 μM",[12]; read-out: Recovery% (AP-BL),53.8%
same,"recovery at 2 h, 5 μM",[12]; read-out: Recovery% (BL-AP),60.3%
same,"Papp A→B at 2 h, 5 µM","[12]; Caco-2, 5 μM, 2 h",5.6 ×10⁻⁶ cm/s
same,"Papp A→B at 2 h, 5 μM","[12]; Caco-2, 5 μM, 2 h",5.59 ×10⁻⁶ cm/s
same,"Papp B→A at 2 h, 5 µM","[12]; Caco-2, 5 μM, 2 h",10.7 ×10⁻⁶ cm/s
same,"Papp B→A at 2 h, 5 μM","[12]; Caco-2, 5 μM, 2 h",10.7 ×10⁻⁶ cm/s
same,enhancement in permeability compared with 1,[13],14 fold
same,"recovery at 2 h, 1 μM",[14]; read-out: Recovery% (AP-BL),51.6%
same,"recovery at 2 h, 1 μM",[14]; read-out: Recovery% (BL-AP),66.4%
same,increase in permeability compared to 1,[15],roughly 4 fold
same,"efflux ratio at 2 h, 1 µM",[16],2
same,"efflux ratio at 2 h, 1 μM",[16],1.99
same,"Papp A→B at 2 h, 1 µM","[16]; 1 μM, 2 h",4.2 ×10⁻⁶ cm/s
same,"Papp A→B at 2 h, 1 μM","[16]; 1 μM, 2 h",4.19 ×10⁻⁶ cm/s
same,"Papp B→A at 2 h, 1 µM","[16]; 1 μM, 2 h",8.3 ×10⁻⁶ cm/s
same,"Papp B→A at 2 h, 1 μM","[16]; 1 μM, 2 h",8.26 ×10⁻⁶ cm/s
same,"recovery at 6 h, 5 μM",[17]; human plasma,101%
same,"remaining at 6 h, 5 μM",[17]; human plasma,99.5%
same,"fraction unbound at 6 h, 5 μM",[17]; human plasma,0.0512
same,"fraction unbound at 6 h, 5 μM","[17]; plasma, 5 μM",0.0512
same,Kd,[18]; L858R,0.8 nM
same,binding and biochemical inhibition of activating mutant bearing EGFR,"[18]; in words, Tables S1 and S3",single-digit nanomolar
same,IC50,[19],< 1 nM
